How the values were obtained:
[1] = test system: analgesic effect of morphine; conditions: for ID50 a / ID50 c: ratio of analgesic-effect ID50 a to constipating-effect ID50 c; for ID50 a / ID50 c / Antagonism with respect to the analgesic effect ID50 a: (°) inactive up to the maximum injectable dose; for Antagonism with respect to the analgesic effect ID50 a: subcutaneous antagonist, 5 min before 12 mg/kg s.c. morphine, female mice, limits in parentheses, where given, on next line; for central effects / central activity (in words): conclusion from Table I
[2] = test system: constipating effect of morphine; assay: antagonism to the constipating effect of morphine (charcoal meal test, after A. F. Green, modified); conditions: for Antagonism with respect to the constipating effect ID50 c: subcutaneous antagonist, 5 min before 12 mg/kg s.c. morphine, female mice, extrapolated from least squares line log dose-response, limits in parentheses printed on next line; for ED50: Mus musculus, sc, read-out: Antagonism with respect to the constipating effect ID50 c
[3] = test system: analgesic effect of morphine; assay: animal or person; conditions: Mus musculus, sc, read-out: Antagonism with respect to the analgesic effect ID50 a
[4] = morphine control group, 12 mg/kg subcutaneous

Row | SMILES | ID50 a / ID50 c [1] | Antagonism with respect to the analgesic effect ID50 a [1] | Antagonism with respect to the constipating effect ID50 c [2] | animals showing the increase of the threshold of sensitivity [1, 4] | average increase of the threshold of sensitivity [1, 4] | central effects / central activity (in words) [1] | ED50 [2] | ED50 [3] | ID50 a relative to ID50 c (in words) ([1]; mouse, in vivo)
1 | C=CC[N+]1(CC=C)CC[C@]23CCCC[C@H]2[C@H]1Cc1ccc(O)cc13 [levallorphan bromoallylate, bromoallylate of levallorphan] | > 5.11 | > 80 mg/kg | – | – | – | – | – | – | –
2 | C=CC[N+]1(CC=C)CC[C@]23CCCC[C@H]2[C@H]1Cc1ccc(O)cc13 [levallorphan iodoallylate, iodoallylate of levallorphan] | > 3.61 | > 60 mg/kg | 16.68 mg/kg | – | – | – | – | – | –
3 | CN1CC[C@]23c4c5ccc(O)c4O[C@H]2[C@@H](O)C=C[C@H]3[C@H]1C5 [morphine] | – | – | – | 100% | 100% | – | – | – | –
4 | C=CC[N+]1(C)CC[C@]23c4c5ccc(O)c4O[C@H]2C(=O)CC[C@@]3(O)[C@H]1C5 (some centres unmarked) [naloxone bromomethylate] | 0.47 | – | – | – | – | have a certain central activity | 10.8 mg/kg | 5.12 mg/kg | –
5 | C=CC[N+]1(C)CC[C@]23c4c5ccc(O)c4O[C@H]2C(=O)CC[C@@]3(O)[C@H]1C5.COS(=O)(=O)[O-] (some centres unmarked) [naloxone sulfomethylate] | 1.68 | 5.039 mg/kg | 2.99 mg/kg | – | – | have a certain central activity | – | – | –
6 | C=CCN1CC[C@]23c4c5ccc(O)c4O[C@H]2C(=O)CC[C@@]3(O)[C@H]1C5 [naloxone, N-allylnoroxymorphone] | 0.11 | – | – | – | – | very active | 0.75 mg/kg | 0.083 mg/kg | much more active as antagonist of the analgesic effect than antagonist of the constipating effect

From US4489079A, “Pharmaceutical compositions having a peripheral antagonistic action with respect to opiates” (priority 1981, dated 1984)
